Test results: patent US20120122860A1, “SOLID FORMS OF SULFONAMIDES AND AMINO ACIDS” (Plexxikon, Inc., priority 2009, published 2012)

Tests used:
B-Raf = B-Raf (Homo sapiens, UniProt P15056); assay: Kinase activity assay, B-Raf; assay type: biochemical; conditions: read-out: activity toward kinase B-Raf, IC50
Src = Src (Homo sapiens, UniProt P12931); assay: Kinase activity assay, Src
Kit = Kit (Homo sapiens, UniProt P10721); assay: Kinase activity assay, Kit
TEC = molecular target: T1, TEC (Homo sapiens, UniProt P42680); assay: Kinase activity assay, TEC
T1 sequence (P42680 1-631): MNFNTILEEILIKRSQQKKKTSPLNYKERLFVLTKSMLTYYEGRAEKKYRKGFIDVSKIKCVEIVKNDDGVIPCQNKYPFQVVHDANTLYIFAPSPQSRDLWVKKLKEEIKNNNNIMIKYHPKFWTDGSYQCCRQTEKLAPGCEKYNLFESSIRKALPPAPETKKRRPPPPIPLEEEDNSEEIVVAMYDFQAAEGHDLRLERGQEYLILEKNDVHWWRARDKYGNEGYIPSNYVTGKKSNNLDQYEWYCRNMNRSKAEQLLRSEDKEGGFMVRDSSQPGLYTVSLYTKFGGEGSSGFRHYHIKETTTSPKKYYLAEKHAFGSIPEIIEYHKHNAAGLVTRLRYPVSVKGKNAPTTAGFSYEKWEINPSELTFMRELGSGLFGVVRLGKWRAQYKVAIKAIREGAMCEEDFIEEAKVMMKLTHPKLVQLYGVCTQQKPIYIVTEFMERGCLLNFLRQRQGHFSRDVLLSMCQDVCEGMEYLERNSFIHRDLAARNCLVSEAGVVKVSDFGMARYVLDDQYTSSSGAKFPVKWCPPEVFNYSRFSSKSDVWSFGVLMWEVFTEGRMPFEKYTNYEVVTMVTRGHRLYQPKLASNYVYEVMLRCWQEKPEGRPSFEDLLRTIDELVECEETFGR

Btk = Btk (Homo sapiens, UniProt Q06187); assay: Kinase activity assay, Btk
B-Raf V600E = B-Raf V600E (Homo sapiens, UniProt P15056, V600E); assay: Kinase activity assay, B-Raf V600E; assay type: biochemical; conditions: read-out: activity toward kinase B-Raf V600E, IC50
C-Raf = C-Raf (Homo sapiens, UniProt P04049); assay: Kinase activity assay, C-Raf
Kdr = Kdr (Homo sapiens, UniProt P35968); assay: Kinase activity assay, Kdr
MAP4K4 = MAP4K4 (Homo sapiens, UniProt O95819); assay: Kinase activity assay, MAP4K4
Fms = Fms (Homo sapiens, UniProt P07333); assay: Kinase activity assay, Fms
A-Raf = molecular target: T2, A-Raf (Homo sapiens, UniProt P10398); assay: Kinase activity assay, A-Raf
T2 sequence (P10398 1-606): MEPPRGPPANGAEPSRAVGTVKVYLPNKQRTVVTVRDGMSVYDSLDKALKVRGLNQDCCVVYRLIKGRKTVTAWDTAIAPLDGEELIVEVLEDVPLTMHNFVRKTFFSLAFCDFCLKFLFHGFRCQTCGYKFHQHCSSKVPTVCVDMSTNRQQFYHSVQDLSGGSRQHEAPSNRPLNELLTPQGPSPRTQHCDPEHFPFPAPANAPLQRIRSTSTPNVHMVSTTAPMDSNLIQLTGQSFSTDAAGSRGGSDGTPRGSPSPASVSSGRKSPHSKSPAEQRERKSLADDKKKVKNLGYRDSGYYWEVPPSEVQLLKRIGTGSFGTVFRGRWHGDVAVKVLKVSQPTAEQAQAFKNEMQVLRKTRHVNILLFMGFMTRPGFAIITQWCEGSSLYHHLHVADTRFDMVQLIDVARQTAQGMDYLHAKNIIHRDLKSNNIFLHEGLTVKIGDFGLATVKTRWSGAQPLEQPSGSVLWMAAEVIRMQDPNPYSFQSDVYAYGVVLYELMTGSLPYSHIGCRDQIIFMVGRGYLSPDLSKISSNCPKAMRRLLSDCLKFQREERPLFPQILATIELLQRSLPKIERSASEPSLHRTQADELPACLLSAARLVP

Chain of Btk (Q06187 whole entry): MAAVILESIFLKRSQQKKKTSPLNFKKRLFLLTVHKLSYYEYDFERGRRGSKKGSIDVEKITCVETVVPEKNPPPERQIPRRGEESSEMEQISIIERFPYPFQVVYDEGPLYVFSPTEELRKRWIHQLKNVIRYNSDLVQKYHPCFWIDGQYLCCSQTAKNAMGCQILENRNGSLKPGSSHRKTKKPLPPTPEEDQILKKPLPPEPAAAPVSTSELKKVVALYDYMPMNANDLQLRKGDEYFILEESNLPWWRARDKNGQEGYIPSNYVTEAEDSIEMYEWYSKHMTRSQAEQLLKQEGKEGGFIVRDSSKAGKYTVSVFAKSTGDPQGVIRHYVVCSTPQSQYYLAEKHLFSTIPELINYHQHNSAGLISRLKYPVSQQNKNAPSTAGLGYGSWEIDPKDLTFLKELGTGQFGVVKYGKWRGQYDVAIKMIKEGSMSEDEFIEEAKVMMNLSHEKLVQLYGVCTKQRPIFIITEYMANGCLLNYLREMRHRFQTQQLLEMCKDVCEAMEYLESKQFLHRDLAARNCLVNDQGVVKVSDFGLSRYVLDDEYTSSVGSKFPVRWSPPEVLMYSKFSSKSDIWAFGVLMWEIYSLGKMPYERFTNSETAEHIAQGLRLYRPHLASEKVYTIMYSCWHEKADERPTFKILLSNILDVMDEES
Chain of B-Raf (P15056 whole entry): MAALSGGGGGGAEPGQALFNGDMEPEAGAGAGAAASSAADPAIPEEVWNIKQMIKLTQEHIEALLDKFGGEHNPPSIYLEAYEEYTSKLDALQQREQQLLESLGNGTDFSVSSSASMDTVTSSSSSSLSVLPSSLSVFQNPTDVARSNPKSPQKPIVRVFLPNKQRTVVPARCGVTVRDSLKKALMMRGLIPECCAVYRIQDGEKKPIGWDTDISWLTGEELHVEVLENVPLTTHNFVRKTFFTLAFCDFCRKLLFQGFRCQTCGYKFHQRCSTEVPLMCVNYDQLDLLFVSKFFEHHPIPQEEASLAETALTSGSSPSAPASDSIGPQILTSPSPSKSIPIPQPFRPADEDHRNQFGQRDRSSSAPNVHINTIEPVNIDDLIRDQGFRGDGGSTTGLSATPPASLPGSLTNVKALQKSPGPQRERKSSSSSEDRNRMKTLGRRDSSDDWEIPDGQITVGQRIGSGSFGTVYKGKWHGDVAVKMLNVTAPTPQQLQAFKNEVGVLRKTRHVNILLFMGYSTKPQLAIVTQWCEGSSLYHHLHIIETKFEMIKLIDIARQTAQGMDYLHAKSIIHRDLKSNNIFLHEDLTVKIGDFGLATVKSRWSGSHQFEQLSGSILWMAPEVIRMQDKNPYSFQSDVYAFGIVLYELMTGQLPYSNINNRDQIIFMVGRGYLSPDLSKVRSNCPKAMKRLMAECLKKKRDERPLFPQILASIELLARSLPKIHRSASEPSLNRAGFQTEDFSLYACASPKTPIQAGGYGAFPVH
Chain of MAP4K4 (O95819 whole entry): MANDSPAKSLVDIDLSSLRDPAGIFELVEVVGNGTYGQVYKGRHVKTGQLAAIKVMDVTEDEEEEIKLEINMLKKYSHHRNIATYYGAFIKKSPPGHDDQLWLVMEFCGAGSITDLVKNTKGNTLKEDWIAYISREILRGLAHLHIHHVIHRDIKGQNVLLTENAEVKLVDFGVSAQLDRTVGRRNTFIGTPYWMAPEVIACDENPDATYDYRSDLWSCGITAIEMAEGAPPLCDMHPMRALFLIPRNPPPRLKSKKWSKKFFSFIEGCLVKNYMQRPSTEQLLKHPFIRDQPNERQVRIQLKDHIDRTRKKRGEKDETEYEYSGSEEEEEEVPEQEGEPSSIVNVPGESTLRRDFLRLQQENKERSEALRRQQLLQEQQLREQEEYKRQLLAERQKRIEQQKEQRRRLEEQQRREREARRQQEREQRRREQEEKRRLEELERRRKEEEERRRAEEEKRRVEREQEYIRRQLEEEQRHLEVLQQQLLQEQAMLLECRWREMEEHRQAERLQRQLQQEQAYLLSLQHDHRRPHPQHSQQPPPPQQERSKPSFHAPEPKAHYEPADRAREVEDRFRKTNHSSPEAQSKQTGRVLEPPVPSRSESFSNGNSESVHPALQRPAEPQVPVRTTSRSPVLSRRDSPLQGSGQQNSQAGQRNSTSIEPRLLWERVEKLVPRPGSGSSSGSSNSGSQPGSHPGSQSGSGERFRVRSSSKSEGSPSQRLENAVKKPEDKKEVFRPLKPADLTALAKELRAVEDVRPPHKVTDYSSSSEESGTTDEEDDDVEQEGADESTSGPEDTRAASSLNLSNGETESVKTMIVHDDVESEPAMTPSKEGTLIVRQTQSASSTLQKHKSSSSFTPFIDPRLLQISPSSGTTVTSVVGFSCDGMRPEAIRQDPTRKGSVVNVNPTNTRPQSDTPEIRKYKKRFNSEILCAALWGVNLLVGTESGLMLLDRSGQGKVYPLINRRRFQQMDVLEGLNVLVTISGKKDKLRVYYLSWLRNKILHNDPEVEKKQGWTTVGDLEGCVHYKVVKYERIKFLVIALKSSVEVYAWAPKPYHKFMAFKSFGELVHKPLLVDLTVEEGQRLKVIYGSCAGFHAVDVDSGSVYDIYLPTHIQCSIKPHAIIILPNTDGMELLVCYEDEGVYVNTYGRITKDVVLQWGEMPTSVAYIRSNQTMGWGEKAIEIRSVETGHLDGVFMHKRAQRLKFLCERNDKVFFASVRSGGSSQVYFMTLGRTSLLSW
Chain of Src (P12931 whole entry): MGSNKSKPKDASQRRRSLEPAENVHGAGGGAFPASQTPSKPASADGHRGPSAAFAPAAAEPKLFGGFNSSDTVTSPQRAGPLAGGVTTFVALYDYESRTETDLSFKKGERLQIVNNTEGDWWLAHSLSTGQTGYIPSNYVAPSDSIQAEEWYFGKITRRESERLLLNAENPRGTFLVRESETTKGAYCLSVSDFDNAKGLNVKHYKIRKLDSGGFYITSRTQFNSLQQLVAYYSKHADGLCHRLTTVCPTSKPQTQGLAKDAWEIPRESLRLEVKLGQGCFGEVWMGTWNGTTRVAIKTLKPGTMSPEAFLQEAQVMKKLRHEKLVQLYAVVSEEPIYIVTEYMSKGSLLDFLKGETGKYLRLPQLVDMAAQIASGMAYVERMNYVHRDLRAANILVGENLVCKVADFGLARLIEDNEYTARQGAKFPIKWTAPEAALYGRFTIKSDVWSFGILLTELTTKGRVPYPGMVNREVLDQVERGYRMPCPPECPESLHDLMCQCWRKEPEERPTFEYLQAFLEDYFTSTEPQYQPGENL
Chain of Kdr (P35968 20-1356): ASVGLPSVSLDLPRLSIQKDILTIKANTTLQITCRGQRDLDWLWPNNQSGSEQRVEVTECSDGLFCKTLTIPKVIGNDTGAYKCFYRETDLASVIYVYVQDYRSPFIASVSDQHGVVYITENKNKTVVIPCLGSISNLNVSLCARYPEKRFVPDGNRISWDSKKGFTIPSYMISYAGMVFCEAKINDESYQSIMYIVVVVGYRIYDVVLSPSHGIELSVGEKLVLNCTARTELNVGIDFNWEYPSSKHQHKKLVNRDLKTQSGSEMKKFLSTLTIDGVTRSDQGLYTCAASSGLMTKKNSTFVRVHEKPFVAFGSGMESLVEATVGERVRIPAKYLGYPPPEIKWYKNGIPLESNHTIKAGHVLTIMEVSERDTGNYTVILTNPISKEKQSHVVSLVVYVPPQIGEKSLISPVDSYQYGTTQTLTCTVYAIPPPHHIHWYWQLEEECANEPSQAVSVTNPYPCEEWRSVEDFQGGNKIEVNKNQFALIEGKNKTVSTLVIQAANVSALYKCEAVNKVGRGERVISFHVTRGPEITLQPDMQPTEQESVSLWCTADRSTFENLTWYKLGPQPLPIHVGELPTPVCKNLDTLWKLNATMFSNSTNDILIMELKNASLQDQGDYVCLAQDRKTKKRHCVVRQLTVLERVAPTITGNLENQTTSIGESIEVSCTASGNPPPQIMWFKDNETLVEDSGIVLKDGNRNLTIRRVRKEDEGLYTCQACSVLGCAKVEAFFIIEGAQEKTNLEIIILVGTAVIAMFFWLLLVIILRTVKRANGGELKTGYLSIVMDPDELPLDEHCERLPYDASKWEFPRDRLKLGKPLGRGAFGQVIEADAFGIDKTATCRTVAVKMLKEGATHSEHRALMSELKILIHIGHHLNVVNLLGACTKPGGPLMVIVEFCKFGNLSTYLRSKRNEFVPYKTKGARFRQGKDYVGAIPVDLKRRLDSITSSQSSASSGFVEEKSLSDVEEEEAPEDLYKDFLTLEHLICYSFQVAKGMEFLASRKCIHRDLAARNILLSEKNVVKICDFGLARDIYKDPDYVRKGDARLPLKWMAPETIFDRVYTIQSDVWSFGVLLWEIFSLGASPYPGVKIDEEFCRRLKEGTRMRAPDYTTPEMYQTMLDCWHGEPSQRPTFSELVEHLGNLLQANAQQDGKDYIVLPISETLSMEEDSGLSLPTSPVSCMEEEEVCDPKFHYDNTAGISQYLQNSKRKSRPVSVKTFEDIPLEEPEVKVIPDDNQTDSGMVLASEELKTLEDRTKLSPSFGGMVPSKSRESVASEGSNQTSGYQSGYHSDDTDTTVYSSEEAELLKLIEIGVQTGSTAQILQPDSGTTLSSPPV
Chain of B-Raf V600E (P15056 whole entry V600E): as the sequence (P15056 whole entry) above, with V600E counted along it

| Structure (SMILES) | IC50 (B-Raf) [µM] | IC50 (Src) [µM] | IC50 (Kit) [µM] | IC50 (TEC) [µM] | IC50 (Btk) [µM] | IC50 (B-Raf V600E) [µM] | IC50 (C-Raf) [µM] | IC50 (Kdr) [µM] | IC50 (MAP4K4) [µM] | IC50 (Fms) [µM] | IC50 (A-Raf) [µM] |
| --- | --- | --- | --- | --- | --- | --- | --- | --- | --- | --- | --- |
| N#Cc1cnc2[nH]cc(C(=O)c3cccc(NS(=O)(=O)c4cccc(F)c4)c3F)c2c1 [P-2053, N-[3-(5-Cyano-1H-pyrrolo[2,3-b]pyridine-3-carbonyl)-2-fluoro-phenyl]-3-fluoro-benzenesulfonamide] | ≤ 10 | ≤ 10 | – | ≤ 10 | ≤ 10 | ≤ 10 | ≤ 10 | – | – | – | – |
| N#Cc1cnc2[nH]cc(C(=O)c3cccc(NS(=O)(=O)c4c(F)cccc4F)c3F)c2c1 [P-2054, N-[3-(5-Cyano-1H-pyrrolo[2,3-b]pyridine-3-carbonyl)-2-fluoro-phenyl]-2,6-difluoro-benzenesulfonamide] | ≤ 10 | ≤ 10 | ≤ 10 | ≤ 10 | ≤ 10 | ≤ 10 | ≤ 10 | ≤ 10 | – | – | – |
| N#Cc1cnc2[nH]cc(C(=O)c3cccc(NS(=O)(=O)c4ccccc4F)c3F)c2c1 [P-2051, N-[3-(5-Cyano-1H-pyrrolo[2,3-b]pyridine-3-carbonyl)-2-fluoro-phenyl]-2-fluoro-benzenesulfonamide] | ≤ 10 | ≤ 10 | ≤ 10 | ≤ 10 | ≤ 10 | ≤ 10 | ≤ 10 | ≤ 10 | – | – | – |
| N#Cc1cnc2[nH]cc(C(=O)c3cccc(NS(=O)(=O)c4ccccn4)c3F)c2c1 [P-2087, Pyridine-2-sulfonic acid [3-(5-cyano-1H-pyrrolo[2,3-b]pyridine-3-carbonyl)-2-fluoro-phenyl]-amide] | ≤ 10 | ≤ 10 | – | ≤ 10 | ≤ 10 | ≤ 10 | ≤ 10 | – | – | – | – |
| O=C(c1cccc(NS(=O)(=O)C2CCCCC2)c1)c1c[nH]c2ncc(F)cc12 [P-2462, Cyclohexanesulfonic acid [3-(5-fluoro-1H-pyrrolo[2,3-b]pyridine-3-carbonyl)-phenyl]-amide] | – | – | – | – | ≤ 10 | – | – | – | ≤ 10 | – | – |
| CCCS(=O)(=O)Nc1ccc(F)c(C(=O)c2c[nH]c3ncc(-c4ccc(NS(C)(=O)=O)cc4)cc23)c1F [P-2165, Propane-1-sulfonic acid {2,4-difluoro-3-[5-(4-methanesulfonylamino-phenyl)-1H-pyrrolo[2,3-b]pyridine-3-carbonyl]-phenyl}-amide] | ≤ 10 | ≤ 10 | ≤ 10 | – | ≤ 10 | ≤ 10 | ≤ 10 | ≤ 10 | – | ≤ 10 | ≤ 10 |
| N#Cc1cnc2[nH]cc(C(=O)c3cccc(NS(=O)(=O)c4cc(F)ccc4F)c3F)c2c1 [P-2052, N-[3-(5-Cyano-1H-pyrrolo[2,3-b]pyridine-3-carbonyl)-2-fluoro-phenyl]-2,5-difluoro-benzenesulfonamide] | ≤ 10 | ≤ 10 | ≤ 10 | ≤ 10 | ≤ 10 | ≤ 10 | ≤ 10 | ≤ 10 | – | – | – |
| N#Cc1cnc2[nH]cc(C(=O)c3cccc(NS(=O)(=O)CC(F)(F)F)c3F)c2c1 [P-2414, 2,2,2-Trifluoro-ethanesulfonic acid [3-(5-cyano-1H-pyrrolo[2,3-b]pyridine-3-carbonyl)-2-fluoro-phenyl]-amide] | ≤ 10 | ≤ 10 | – | ≤ 10 | ≤ 10 | ≤ 10 | ≤ 10 | – | – | – | – |

Next, values leading:

| IC50 (B-Raf) [µM] | IC50 (Src) [µM] | IC50 (Kit) [µM] | IC50 (TEC) [µM] | IC50 (Btk) [µM] | IC50 (B-Raf V600E) [µM] | IC50 (C-Raf) [µM] | IC50 (Kdr) [µM] | IC50 (MAP4K4) [µM] | IC50 (Fms) [µM] | IC50 (A-Raf) [µM] | Structure (SMILES) |
| --- | --- | --- | --- | --- | --- | --- | --- | --- | --- | --- | --- |
| ≤ 10 | ≤ 10 | ≤ 10 | ≤ 10 | ≤ 10 | ≤ 10 | ≤ 10 | ≤ 10 | – | – | – | COc1ncc(-c2cnc3[nH]cc(C(=O)c4c(F)ccc(NS(=O)(=O)N5CCCC5)c4F)c3c2)cn1 [P-2400] |
| ≤ 10 | ≤ 10 | ≤ 10 | – | ≤ 10 | ≤ 10 | ≤ 10 | ≤ 10 | ≤ 10 | ≤ 10 | – | CCCS(=O)(=O)Nc1ccc(F)c(C(=O)c2c[nH]c3ncc(-c4ccc(C#CCN(CC)CC)nc4)cc23)c1F [P-2222, Propane-1-sulfonic acid (3-{5-[6-(3-diethylamino-prop-1-ynyl)-pyridin-3-yl]-1H-pyrrolo[2,3-b]pyridine-3-carbonyl}-2,4-difluoro-phenyl)-amide] |
| ≤ 10 | ≤ 10 | ≤ 10 | – | ≤ 10 | ≤ 10 | – | ≤ 10 | ≤ 10 | ≤ 10 | – | CCS(=O)(=O)Nc1ccc(F)c(C(=O)c2c[nH]c3ncc(-c4ccc(F)cc4)cc23)c1F [P-2270, Ethanesulfonic acid {2,4-difluoro-3-[5-(4-fluoro-phenyl)-1H-pyrrolo[2,3-b]pyridine-3-carbonyl]-phenyl}-amide] |
| – | – | – | ≤ 10 | ≤ 10 | – | – | – | – | ≤ 10 | – | O=C(c1cc(NS(=O)(=O)N2CCCCC2)ccc1F)c1c[nH]c2ncccc12 [P-2440, Piperidine-1-sulfonic acid [4-fluoro-3-(1H-pyrrolo[2,3-b]pyridine-3-carbonyl)-phenyl]-amide] |
| ≤ 10 | ≤ 10 | ≤ 10 | – | ≤ 10 | ≤ 10 | ≤ 10 | ≤ 10 | ≤ 10 | ≤ 10 | ≤ 10 | CCCS(=O)(=O)Nc1ccc(F)c(C(=O)c2c[nH]c3ncc(-c4ccc(OCCCN5CCCC5)nc4)cc23)c1F [P-2235, Propane-1-sulfonic acid (2,4-difluoro-3-{5-[6-(3-pyrrolidin-1-yl-propoxy)-pyridin-3-yl]-1H-pyrrolo[2,3-b]pyridine-3-carbonyl}-phenyl)-amide] |
| ≤ 10 | – | – | – | ≤ 10 | ≤ 10 | ≤ 10 | – | – | – | ≤ 10 | N#Cc1cnc2[nH]cc(C(=O)c3cccc(NS(=O)(=O)N4CCCC4)c3F)c2c1 [P-2420, Pyrrolidine-1-sulfonic acid [3-(5-cyano-1H-pyrrolo[2,3-b]pyridine-3-carbonyl)-2-fluoro-phenyl]-amide] |
| – | – | ≤ 10 | ≤ 10 | ≤ 10 | – | – | ≤ 10 | – | ≤ 10 | – | O=C(c1cccc(NS(=O)(=O)N2CCCCC2)c1)c1c[nH]c2ncc(Cl)cc12 [P-2471, Piperidine-1-sulfonic acid [3-(5-chloro-1H-pyrrolo[2,3-b]pyridine-3-carbonyl)-phenyl]-amide] |
| ≤ 10 | ≤ 10 | ≤ 10 | – | ≤ 10 | ≤ 10 | ≤ 10 | ≤ 10 | ≤ 10 | – | – | CCCS(=O)(=O)Nc1ccc(F)c(C(=O)c2c[nH]c3ncc(-c4ccc(N(C)C)nc4)cc23)c1F [P-2229, Propane-1-sulfonic acid {3-[5-(6-dimethylamino-pyridin-3-yl)-1H-pyrrolo[2,3-b]pyridine-3-carbonyl]-2,4-difluoro-phenyl}-amide] |
| ≤ 10 | ≤ 10 | ≤ 10 | – | ≤ 10 | ≤ 10 | ≤ 10 | ≤ 10 | – | ≤ 10 | – | CCCS(=O)(=O)Nc1ccc(F)c(C(=O)c2c[nH]c3ncc(-c4cnn(C)c4)cc23)c1 [P-2431, Propane-1-sulfonic acid {4-fluoro-3-[5-(1-methyl-1H-pyrazol-4-yl)-1H-pyrrolo[2,3-b]pyridine-3-carbonyl]-phenyl}-amide] |
